A melting point compilation (Tetko et al.; mined from patent text by program, amines drawn as free bases though some values may be those of a salt)

SMILES	melting point [°C]
CCCc1nc2c(N)nc3ccccc3c2o1	159 to 160
CCCCOc1ccc(CCCCCCCCC(=O)NO)cc1	99 to 101
COC(=O)c1ccc(-c2ccc(-c3ccccc3)c(-c3ccc4c(c3)SCCC4(C)C)c2)cc1	172
CCOC(=O)c1ccc(COCc2csc3nc(C(=O)NCc4ccnc(OCC5CCOC5)c4)[nH]c(=O)c23)cc1 (configuration not stated)	225
NS(=O)(=O)c1ncccc1-c1ccccc1	172
COC(=O)C1=C(CN2CCN(C)CC2)Nc2ccnc(OC(C)C)c2C1c1ccccc1 (configuration not stated)	149 to 151
Cn1ncnc1COc1nc2c(cc1-c1ccccc1)nnn2-c1ccccc1	153 to 156
CC(=O)c1c(C#N)nn(-c2c(Cl)cc(OC(F)(F)F)cc2Cl)c1N	192 to 193
COC(=O)c1ccc2c(c1)Nc1nccnc1S2	265 to 268
Cc1cccc(Oc2ccc(Cl)cc2C(=O)O)c1	124 to 125
CC(C)C(C)(NC(=O)c1nc2ccccc2cc1C(=O)O)C(N)=O (configuration not stated)	172 to 174
CC(=Cc1c[nH]c2ccc(CNS(C)(=O)=O)cc12)[N+](=O)[O-]	201 to 202
OCCN(c1ccncc1F)n1ccc2ccccc21	133 to 135
CCCCCCCCCCCCCCCCNc1ccc(C=O)cc1	66.5 to 67.5
O=C1COC(=O)C1=Cc1ccc(C(=O)O)s1	255 to 268
O=c1[nH]c2cc(Cl)ccc2c(O)c1-c1ccc(F)cc1	335 to 337
CC1(C)C=C(n2cccnc2=O)c2cc(C#N)ccc2O1	250 to 252
Cc1c(Cc2ccccc2)c(=O)oc2cc(OCC(=N)NO)cc(OCC(=N)NO)c12	155 to 160
C=C(C)C(=O)Oc1ccc(/C=C/C(=O)OC)cc1	76 to 80

SMILES	melting point [°C]
Cc1cccc2c1C(=O)C(COC(=O)Nc1ccccc1)(COC(=O)Nc1ccccc1)CS2=O (configuration not stated)	76 to 82
Clc1ccc(CN2CCCCC2)cn1	48
O=S(=O)(/C=C/c1ccc(F)cc1)Nc1ccc(Cl)cc1	126 to 128
COc1cccc(COC(=O)c2ncn3c2[C@@H]2CCCN2C(=O)c2c(Cl)cccc2-3)c1	131 to 133
CCS(=O)(=O)c1ccc(C(CC2CCCC2)C(=O)Nc2ccccn2)cc1 (configuration not stated)	144 to 145
COc1ccc(C(=C/C=C/C(=O)NCCCCc2cncc3ccccc23)c2ccc(OC)cc2)cc1	91 to 93
CCCOc1ccc(S(=O)(=O)N2CCN(CC)CC2)cc1-c1nc2cc(N)c([N+](=O)[O-])cc2c(=O)[nH]1	248 to 250
CCOC(=O)c1c(O)c2cc(C)ccc2[nH]c1=O	242
NC1CCCC(NC(=O)c2ccc(-c3[nH]nc4c3C(=O)c3c(NC(=O)NN5CCOCC5)cccc3-4)s2)C1 (configuration not stated)	> 300
N#CCC#CC1(c2ccc(Cl)cc2)CC1	62 to 64
Cc1ccc2c(c1)C=Cc1oc(C)nc1C2c1cn(C)c(=O)[nH]c1=S (configuration not stated)	146 to 150
Cc1cccc(NC(=O)NCC(=O)N(Cc2ccccc2)c2ccccc2)c1	175
CC(=O)Nc1ccc(OC2SCC(O)C(O)C2O)cc1 (configuration not stated)	238
COCCNS(=O)(=O)c1cccc(Nc2nccc(-c3sc(C)nc3C)n2)c1	197 to 198
CS(=O)(=O)CS(C)(=O)=O	146
Cn1cc2c3c(ccc2n1)CCC3=O	162 to 164
Cc1nnc2n1-c1ccccc1C(c1ccccc1)=NC2NC(=O)Nc1ccc(Cl)cc1 (configuration not stated)	292 to 294
CS(=O)(=O)Nc1cc2c(cc1Oc1ccccc1)CCO2	133
CN(CCN1CCNC1=C(C#N)C#N)Cc1ccc(CN2CCCCC2)o1	140 to 143

Other lines, results leading:

melting point [°C]	SMILES
72 to 76	CN1C(=O)CCC1CN1C(=O)C2(COc3cc4c(cc32)CCO4)c2ccccc21 (configuration not stated)
272	COC(=O)c1ccc2c3cccc4cccc(c5ccc(C(=O)N(C)c6ccc(C(C)(C)C)cc6)c1c25)c43
107 to 108	CCCCCCn1c(=O)c2cn(CC)nc2n(C)c1=O
105 to 108	Cc1cccc(-c2n[nH]cc2-c2ccc(F)c(-c3cc[nH]n3)c2)n1
167 to 169	COc1ccc(S(=O)(=O)N2c3ccccc3-c3ccccc3C2C)cc1 (configuration not stated)
77	N#CCc1ccc(N)c(Cl)c1
114 to 115	CCCCc1c(/C=C/C(=O)Oc2ccc([N+](=O)[O-])cc2)ccc2ccc(OC)cc12
150 to 152	Nc1nc(Nc2ccc(SC3(Cl)C=CC(C(F)(F)F)=CN3)cc2)sc1C(=O)c1ccccc1[N+](=O)[O-] (configuration not stated)
90 to 92.5	C=CCc1ccc(C(=O)CCC(=O)OC)cc1O
332 to 334	Cn1cc(C2=C(c3c4n(c5ccccc35)CCC(CNC=O)C4)C(=O)NC2=O)c2ccccc21 (configuration not stated)
110 to 112	CCOC(=O)C(=O)Nc1ccc(CC)cc1[N+](=O)[O-]
72 to 73	CN(C)CC(O)C(c1ccccc1)c1ccccc1 (configuration not stated)
77 to 79	COC(=O)c1cc(Cl)cnc1NCc1ccccc1
166 to 168	O=C(CCOCCOCCC(=O)Oc1cc(O)cc(O)c1)Oc1cc(O)cc(O)c1
122 to 123	CCCC[C@H]1COC(c2ccc(OCCCCCCCc3cc(C)no3)cc2)=N1
145 to 146	Cn1cc(C(O)c2ccncc2)cc1C(=O)c1ccc(Cl)cc1 (configuration not stated)
352	O=C1c2ccc(NC(=O)C3CC3)cc2C(=O)c2cc(NC(=O)C3CC3)ccc21

melting point [°C]	SMILES
177 to 179	CCc1coc2c(-c3ccc(F)cc3)c(-c3ccc(S(C)(=O)=O)cc3)nn12
109 to 110	COC(=O)c1cc(OC)c(OC)c(OC)c1-c1c(C(=O)OC)cc2c(c1OC)OCO2
154 to 156	CCOC(=O)CC12CC1CCCC2=O (configuration not stated)
105 to 106	COCCc1nnc(NC(=O)C2c3ccccc3Oc3ccccc32)o1
257	CCOC(=O)c1c(C)[nH]c2ccc(C(=O)c3c(C)c(OC)c4ccccn34)cc2c1=O
155 to 156	COc1ccc(Cl)c(Oc2c(CCl)nc(N3CCOCC3)nc2NS(=O)(=O)c2ccc(C(C)(C)C)cc2)c1
78 to 81	CCOC(=O)C(=NOC)C1=CSc2ccccc2S1
161 to 162	CCC#CC1(C(F)(F)F)OC(=O)Nc2ccc(OC)cc21 (configuration not stated)
243 to 244	Cc1nc(N)nc(N)c1N=Nc1ccc(I)cc1
226 to 228	CSc1ncnc2c(C3OC(CO)C(O)C3O)csc12 (configuration not stated)
119 to 122	CCOC(=O)C(=CNc1nccs1)C(=O)c1ccc(Cl)nc1Cl
160 to 161	CC(=O)NCc1ccc2c(c1)N(C1CCN(CCc3ccccc3F)CC1)CC2
158	Nc1cc(CO)cc([N+](=O)[O-])c1-c1ccc(O)cc1
88	COC(C)(OC)c1ccc(C2(O)CCC(C)(C)CC2)cc1
227 to 229	Cc1nc(-c2ccccc2)nc(-c2cccc([N+](=O)[O-])c2)c1CNC(N)=S
97 to 98	CCOC(=O)c1c(O)nc(SC(C)C)n1C(C)C
254 to 255	O=C(Nc1cccnn1)N1CCN(c2cc(-c3ccc(F)cc3)ncn2)CC1
